SMILES strings stand for the structures.

For the assay, the target named is T1, PDE4A1 (Mus musculus, UniProt O89084).
T1 construct: targets used in the assays are full-length proteins (as opposed to simply the catalytic domain); expressed in transfected cells; host or cells: Schizosaccharomyces pombe, PDE gene integrated in place of cgs2
T1 sequence (O89084 1-610 isoform O89084-2): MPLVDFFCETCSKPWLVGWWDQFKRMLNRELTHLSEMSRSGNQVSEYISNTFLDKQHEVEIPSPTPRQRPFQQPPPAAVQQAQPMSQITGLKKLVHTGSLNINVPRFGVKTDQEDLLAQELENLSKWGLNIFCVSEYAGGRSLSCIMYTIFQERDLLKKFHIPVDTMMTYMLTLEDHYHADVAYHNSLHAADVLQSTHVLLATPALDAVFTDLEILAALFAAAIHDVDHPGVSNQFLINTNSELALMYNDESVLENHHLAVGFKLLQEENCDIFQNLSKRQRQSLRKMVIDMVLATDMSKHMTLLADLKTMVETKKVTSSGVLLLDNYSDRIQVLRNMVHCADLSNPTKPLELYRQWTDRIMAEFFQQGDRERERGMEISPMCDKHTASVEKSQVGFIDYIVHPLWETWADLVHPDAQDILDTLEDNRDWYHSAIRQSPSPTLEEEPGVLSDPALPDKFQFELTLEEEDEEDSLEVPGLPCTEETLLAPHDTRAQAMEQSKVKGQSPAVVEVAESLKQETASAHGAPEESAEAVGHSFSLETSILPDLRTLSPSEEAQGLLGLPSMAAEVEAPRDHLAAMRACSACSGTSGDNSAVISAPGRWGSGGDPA
In words: 5FOA growth assay (high throughput screen, ED50) in fission yeast strain expressing PDE4A1. To be noted: high throughput 5FOA growth screen; greater than 8.53 = statistically-significant inhibitor. Format: cell-based. The method, then:
High throughput drug screens were carried out at the Broad Institute's Chemical Biology Program screening facility (Broad Institute, Cambridge, Mass.). Depending upon the strain, cultures were pregrown to exponential phase in EMM complete medium containing from 0.5 to 2.5 mM cAMP to repress fbp1-ura4 transcription. […] Starting cell concentrations ranged from 0.5×10^5 to 4×10^5 cells/ml depending on the screening strain. […] Other positive control dishes contained 5 mM cAMP in the 5FOA medium. Cultures were grown for 48 hours at 30° C., sealed in an airtight container with moist paper towels to prevent evaporation. Optical densities (OD600) of cultures were measured using a microplate reader. Bioinformatic analysis of the results to determine composite Z scores was performed as previously described^30, 31.
To determine whether the 5FOA growth phenotype could be exploited for high throughput drug screening, strains expressing PDE2A, PDE4A, PDE4B, or PDE8A were pre-grown in EMM medium containing cAMP and then transferred to 5FOA medium in 384 well microtiter plates in the presence or absence of cAMP. OD600 measurements were taken after 48 hours incubation at 30° C.
Cells were pregrown in EMM medium [MP Biomedicals (Solon, Ohio), 3% glucose, filter-sterilized to avoid carmelization, which would introduce variability into the optical density of the medium] containing from 0 mM to 2.5 mM cAMP (or either 0.5 mM or 1.0 mM cGMP). This was to repress expression of the fbp1-ura4 reporter prior to exposure of cells to 5FOA medium. Cells were grown at 30° C. to exponential phase (approximately 10^7 cells/ml). […] Starting cell concentrations ranged from 0.5×10^5 to 4×10^5 cells/ml depending on the screening strain. […] Other positive control dishes contained 5 mM cAMP in the 5FOA medium for PDEs that lack appropriate control compounds. Cultures were grown for 48 hours at 30° C., sealed in an airtight container with moist paper towels to prevent evaporation. Optical densities (OD600) of cultures were measured using a microplate reader. Bioinformatic analysis of the results to determine composite Z scores was performed as previously described (1, 3).
On to `CCOC(=O)c1sc2ncnc(N3CCC4(CC3)OCCO4)c2c1C` [Compound 1159G15], for which the “Composite Z score, PDE4A1” value is recorded as 5.3411. The figure for `COCCNC(=O)c1sc2ncnc(N3CCN(c4ccccn4)CC3)c2c1C` [Compound 1159M09] is 1.1811; for `Cc1c(C(=O)NCc2ccco2)sc2ncnc(N3CCc4ccccc4C3)c12` [Compound 1159I19] it is 26.235; for `Cc1c(C(=O)NCC2CCCO2)sc2ncnc(N3CCN(c4ccccc4)CC3)c12` (centres unmarked) [1159 E19] it is 1.0613. For `COc1cc(NC(=O)c2sc3nc(C)nc(N4CCCCC4C)c3c2C)cc(OC)c1OC` (centres unmarked) [Compound 1159M15] the value was 17.363; for `CCOC(=O)c1sc2nc(CC(=O)OC)nc(NCCN3CCOCC3)c2c1C` [Compound 1158A03], 0.3744. As for `CC1CCc2c(sc3nc(SCC(N)=O)nc(NCc4ccccc4)c23)C1` (centres unmarked) [Compound 1157L22], the “Composite Z score, PDE4A1” value stood at 2.3434. For `Cc1c(C(=O)Nc2ccc3c(c2)OCO3)sc2ncnc(N3CCc4ccccc4C3)c12` [Compound 1159C21] the value was 3.9976; for `COc1cc(NC(=O)c2sc3nc(C)nc(N4CCOCC4)c3c2C)cc(OC)c1OC` [Compound 1159O09], 0.8757. The figure for `CCOC(=O)CNC(=O)c1sc2ncnc(N3CCN(c4ccccc4F)CC3)c2c1C` [Compound 1159A19] is 2.4477; for `Cc1c(C(=O)NCc2ccco2)sc2ncnc(N3CCN(c4ccccc4F)CC3)c12` [Compound 1159O17] it is 3.616. As to `CCN(CC)CCCNC(=O)c1sc2ncnc(N3CCN(c4ccc(OC)cc4)CC3)c2c1C` [Compound 1158C03], the “Composite Z score, PDE4A1” value is listed as 2.6937.

With `COC(=O)c1ccccc1NC(=O)c1sc2ncnc(N3CCN(c4ccccn4)CC3)c2c1C` [Compound 1159K09], the “Composite Z score, PDE4A1” value stood at 0.5937. As for `CCCCNC(=O)c1sc2ncnc(N3CCc4ccccc4C3)c2c1C` [Compound 1159K19], the “Composite Z score, PDE4A1” value came out at 5.4376.

For `Cc1c(C(=O)NCC2CCCO2)sc2ncnc(N3CCN(c4ccccc4F)CC3)c12` (centres unmarked) [Compound 1159M17], the “Composite Z score, PDE4A1” value is 1.9801.

Consider `COCCCNC(=O)c1sc2ncnc(N3CCc4ccccc4C3)c2c1C` [Compound 1159M19], for which the “Composite Z score, PDE4A1” value is listed as 5.0576. Turning to `COCCCNC(=O)c1sc2ncnc(N3CCN(c4ccccc4F)CC3)c2c1C` [Compound 1159C19], the “Composite Z score, PDE4A1” value was determined as 2.6846. Regarding `Cc1nc(N2CCN(C)CC2)c2c(C)c(C(=O)N3CCN(c4cccc(Cl)c4)CC3)sc2n1` [Compound 1158G03], the “Composite Z score, PDE4A1” value is listed as −0.078.

`Cc1c(C(=O)NCc2ccccn2)sc2ncnc(N3CCc4ccccc4C3)c12` [Compound 1159O19]: the “Composite Z score, PDE4A1” value is 11.945. `Cc1c(C(=O)NCc2ccco2)sc2ncnc(N3CCN(c4ccccc4)CC3)c12` [Compound 1159G19]: the “Composite Z score, PDE4A1” value is reported as 7.7398.
